{"source": "paper PMC6333288", "about": "“The crystal structure of the N-acetylglucosamine 2-epimerase from Nostoc sp. KVJ10 reveals the true dimer” (Acta Crystallographica. Section D, Structural Biology, 2019)", "key": {"nAGE10": {"target": "T1, nAGE10 (Nostoc sp. KVJ10, UniProt A0A452CSU8)", "T1 construct": "synthetic codon-optimised gene, C-terminal hexahistidine tag (no cleavage described), expressed in E. coli BL21 Star (DE3); dimer by gel filtration; residues Tyr3-Leu391 resolved, 157-164 missing", "T1 sequence (A0A452CSU8 entry or part of it)": "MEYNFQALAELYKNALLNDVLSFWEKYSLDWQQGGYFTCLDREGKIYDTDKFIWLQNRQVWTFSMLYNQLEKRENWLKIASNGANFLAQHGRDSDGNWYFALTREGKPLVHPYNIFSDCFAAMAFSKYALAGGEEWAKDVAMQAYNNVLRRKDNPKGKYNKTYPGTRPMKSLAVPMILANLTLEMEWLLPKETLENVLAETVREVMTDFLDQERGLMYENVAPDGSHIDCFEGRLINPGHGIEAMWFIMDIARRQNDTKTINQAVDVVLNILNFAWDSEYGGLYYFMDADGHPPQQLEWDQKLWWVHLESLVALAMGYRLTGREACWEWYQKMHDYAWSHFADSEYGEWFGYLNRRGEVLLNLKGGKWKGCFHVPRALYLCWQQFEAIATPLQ", "test": "coupled AGE/NAL (AsNAL) reaction, Neu5Ac by thiobarbituric acid assay", "format": "biochemical", "conditions": "HEPES pH 8.0, 25 °C, 1 h"}, "[1]": {"target": "N-acetylglucosamine 2-epimerase from Nostoc sp. KVJ10 (Nostoc sp. KVJ10)", "test": "SEC; gel-filtration chromatography on a Superdex 75 10/300 GL column; oligomerization state of purified nAGE10"}}, "data": [{"compound": "CC(=O)N[C@H]1C(O)O[C@H](CO)[C@@H](O)[C@@H]1O", "note": "(stereo partly drawn) [GlcNAc]", "values": [{"measurement": "coupled AGE/NAL (AsNAL) reaction, Neu5Ac by thiobarbituric acid assay", "setting": "nAGE10; 15 mM GlcNAc, 10 mM ATP, 15 mM pyruvate", "result": "The results show that the synthesis of Neu5Ac from GlcNAc is possible"}]}, {"compound": "N-acetylglucosamine 2-epimerase from Nostoc sp. KVJ10 (enzyme)", "values": [{"measurement": "stoichiometry N", "setting": "[1]", "result": 2}]}, {"compound": "Nc1ncnc2c1ncn2[C@@H]1O[C@H](COP(=O)(O)OP(=O)(O)OP(=O)(O)O)[C@@H](O)[C@H]1O", "note": "[ATP]", "values": [{"measurement": "coupled AGE/NAL (AsNAL) reaction, Neu5Ac by thiobarbituric acid assay", "setting": "nAGE10; 10 mM ATP present versus absent, GlcNAc 15 mM, pyruvate 15 mM, allosteric activator", "result": "In the absence of ATP, only a fraction of Neu5Ac could be synthetized from GlcNAc"}]}]}
